No end group written: not given here. *: point of attachment. Cholyl = C[C@H](CCC(=O)*)[C@H]1CC[C@H]2[C@@H]3[C@H](O)C[C@@H]4C[C@H](O)CC[C@]4(C)[C@H]3C[C@H](O)[C@]12C
Columns and labels:
GII.3 human norovirus = details: host intestinal cells; free bile acids; cited from earlier work
B3Z cells [1] = experiment: Antigen-presentation assay using the B3Z reporter system, BMDCs as antigen presenting cells; assay type: cell-based, mouse; details: for antigen-presentation activity of cholic acid-NLS peptide conjugate (B3Z response OD570): BMDCs as antigen presenting cells, mixed with OVA at best conjugate:antigen ratio, FIGS. 3-5; for antigen cross-presentation (B3Z response) compared with OVA alone: BMDCs, molar ratio (bile acid/peptide/conjugate):antigen 4:1, mixed with OVA, FIG. 2
Text: For this experiment, BMDCs were used as the antigen presenting cells (n=6) and the molar ratio (bile acid/peptide/conjugate): antigen was 4:1. Controls tested included no antigen (“PBS”), antigen alone (“OVA alone”), unconjugated NLS peptide (“SV40NLS”), unconjugated cholic acid mixed with OVA (“CA”), and the positive control peptide SIINFEKL (SEQ ID NO: 9) mixed with OVA (“SIINFEKL”). The dashed line represents the signal obtained with OVA alone. Bile acids: cholic acid (CA); glycodeoxycholic acid (GDCA); glycochenodeoxycholic acid (GCDCA); ursodeoxycholic acid (UDCA); and lithocholic acid (LCA).
The dashed line represents the signal obtained with OVA alone. The readout was taken after 24 h of incubation and error bars represent SD (n=6). For this experiment, BMDCs were used as the antigen presenting cells.
The dashed line represents the signal obtained with OVA alone. Readout was taken after 24 h of incubation from a single experiment. The molar ratio of CA-peptide conjugate: OVA was 22:1. For this experiment, BMDCs were used as the antigen presenting cells.
For this experiment, BMDCs were used as the antigen presenting cells. The dashed line represents the signal obtained with OVA alone. Readout was taken after 24 h of incubation from a single experiment. The molar ratio of CA-peptide conjugate: OVA was as follows: CA-GWG-SV40NLS (12:1); CA-hnRNP M NLS (12:1); CA-NLS2-RPS17 NLS (22:1); CA-HuR NLS (22:1); CA-cMyc NLS (2:1); CA-NLS3-RPS17 NLS (22:1); CA-NLS2-RG-RPS17 NLS (2:1); CA-PQBP1 NLS (8:1); CA-hnRNPA1 M9 NLS (22:1); and CA-SV40 NLS (2:1).
(§1) Various bile acid-NLS conjugates were screened using the B3Z reporter system. The B3Z cell line is a T-cell hybridoma specific for the H2-K^b-SIINFEKL complex. Once activated via its TCR, the LacZ reporter gene (under the NFAT promoter control) is expressed. Briefly, 1.5×10^5 BMDCs or 2.5×10^5 MSCs were co-cultured with 5×10^4 B3Z cells treated with the mixing conditions of ovalbumin (OVA) and bile acid-NLS conjugates for overnight at 37° C. with 5% CO2. The following day, all cells were washed twice with PBS (pH 7.4), and the cell pellets were lysed by adding 100 μL of a lysis buffer containing 0.15 mM chlorophenol red-beta-D-galactopyranoside (CPRG) substrate (Calbiochem, La Jolla, Calif.), 0.125% NP40 (EMD Sciences, La Jolla, Calif.), 9 mM MgCl2 (Aldrich, USA) and 100 mM 2-mercaptoethanol in PBS. After a 5- or 24-h incubation at 37° C., absorbance was taken at 570 nm with 636 nm as the reference wavelength. For these experiments, OVA was re-suspended in PBS (pH 7.3) at 5-10 mg/mL. The different bile acid-NLS conjugates were re-suspended in H2O at 10 mg/mL. Bile acid-NLS conjugate: antigen mixtures were prepared at different molar ratios according to Table 2.
Variants of CA-SV40NLS were synthesized in order to explore structure-activity relationships relating to the antigen cross-presentation enhancing activity observed for this conjugate. More particularly, conjugates having different bile acids conjugated to the SV40NLS peptide (SEQ ID NO: 1) were synthesized and their effect on antigen presentation was evaluated by using the B3Z reporter system with the OVA antigen as described in Example 1. […] In FIG. 2, no increase in antigen cross-presentation over the antigen alone (“OVA”) was observed when OVA was mixed with either unconjugated cholic acid (“CA”) or SV40NLS peptide (“SV40NLS”), although lower sensitivity of the B3Z reporter system as compared to the OT-I CD8 T cell-based assay used in FIG. 1 may have been a factor.
(§2) Further variants of CA-SV40NLS were synthesized in which the SV40NLS peptide was replaced with peptides comprising other NLS's (Table 3) and the antigen presentation activities of the CA-NLS peptide conjugates were evaluated using the B3Z reporter system as described in Example 1. The following conjugate:antigen molar ratios were tested for each conjugate: 2:1, 4:1, 8:1, 12:1 and 22:1. […]

B3Z cells [2] = experiment: Antigen-presentation assay using the B3Z reporter system, cross-presenting MSC line as antigen presenting cells; assay type: cell-based; details: compared to OVA alone or OVA mixed with CA-SV40NLS, FIG. 6
Protocol: For this experiment, a cross-presentation mesenchymal stromal cell (MSC) line was used as the antigen presenting cells. The dashed line represents the signal obtained with OVA alone. Readout was taken after 24 h of incubation. The molar ratio of CA-peptide conjugate: OVA was as follows: CA-GWG-SV40NLS (2:1); CA-hnRNP M NLS (8:1); CA-hnRNP D NLS (12:1); CA-NLS2-RG-RPS17 (4:1); CA-cMyc NLS (12:1); CA-HuR NLS (12:1); CA-Tus NLS (2:1); CA-NLS2-RPS17 NLS (4:1); CA-PQBP1 NLS (12:1); CA-hnRNPA1 M9 NLS (2:1); and CA-SV40 NLS (2:1).
as §1, §2

[3] = test system: cross-presenting mesenchymal stromal cell (MSC) line; experiment: Antigen processing: MSC line pulsed with DQ Ovalbumin (OVA-DQ), flow cytometry; assay type: cell-based; details: various conjugate:OVA molar ratios, FIGS. 8A-8D
Protocol: FIGS. 8A to 8D show the effect of different NLS peptides on the antigen processing activity of cholic acid-NLS peptide conjugates. For this experiment, a cross-presenting mesenchymal stromal cell (MSC) line was used as the antigen presenting cells, which were pulsed with DQ™ Ovalbumin (i.e., OVA^DQ). OVA^DQ fluorescence was measured by flow cytometry. Different ratios of CA (NLS1 RSP17 [FIG. 8A]; NLS3 RPS17 [FIG. 8B]; PQBP-1 [FIG. 8C]; and hnRNPA1 M9 NLS [FIG. 8D]) to antigen (CA:OVA=22:1, 12:1, 8:1, 4:1, and 2:1) were tested (hnRNPA1 M9 NLS at 2:1).
(§3) To further dissect the effect of bile acid peptide conjugates on antigen presentation, antigen internalization and processing were evaluated. MSC cell lines were pulsed with OVA-labelled with AF647 in the presence of various molar ratios of different bile acid peptide conjugates, NLS1-RPS17 [FIG. 7A]; NLS3 RPS17 [FIG. 7B]; PQBP-1 [FIG. 7C]; and hnRNPA1 M9 NLS [FIG. 7D]) and fluorescence was assessed by flow cytometry. […] OVA processing was assessed by pulsing MSC cell lines with DQ™-Ovalbumin (OVA-DQ) in the presence of the same bile acid peptide conjugates as in FIGS. 7A to 7D.

[4] = test system: cross-presenting mesenchymal stromal cell (MSC) line; experiment: Antigen internalization: MSC line pulsed with OVA labelled with Alexa Fluor 647, flow cytometry; assay type: cell-based; details: various conjugate:OVA molar ratios, FIGS. 7A-7D
Protocol: FIGS. 7A to 7D show the effect of different NLS peptides on the antigen internalization activity of cholic acid-NLS peptide conjugates. For this experiment, a cross-presenting mesenchymal stromal cell (MSC) line was used as the antigen presenting cells, which were pulsed with OVA labelled with Alexa Fluor 647 (i.e., OVA^647)™. OVA^647 fluorescence was measured by flow cytometry. Different ratios of CA (NLS1 RPS17 [FIG. 7A]; NLS3 RPS17 [FIG. 7B]; PQBP-1 [FIG. 7C]; and hnRNPA1 M9 NLS [FIG. 7D]) to antigen (CA:OVA=22:1, 12:1, 8:1, 4:1, and 2:1) were tested (hnRNPA1 M9 NLS at 2:1).
as §3

Compound | antigen-presentation activity of cholic acid-NLS peptide conjugate (B3Z response OD570) (B3Z cells [1]) | OVA processing (OVA-DQ fluorescence) [3] | OVA internalization (OVA-AF647 fluorescence) [4] | further results
C[C@H](CCC(=O)NCC(=O)O)[C@H]1CC[C@H]2[C@@H]3[C@H](O)C[C@@H]4C[C@H](O)CC[C@]4(C)[C@H]3C[C@H](O)[C@]12C [GCA, glycocholic acid] |  |  |  | effect on GII.3 human norovirus infection and replication (GII.3 human norovirus): increase GII.3 human norovirus infection and replication
C[C@H](CCC(=O)NCC(=O)O)[C@H]1CC[C@H]2[C@@H]3[C@@H](O)C[C@@H]4C[C@H](O)CC[C@]4(C)[C@H]3CC[C@]12C [GUDCA, glycoursodeoxycholic acid] |  |  |  | immunogen enhancer activity (B3Z reporter system) (B3Z cells [1]; GUDCA:OVA molar ratios 2:1, 4:1, 8:1, 12:1 and 22:1): observed at all GUDCA:OVA molar ratios tested; increase in B3Z response (OD570) over the OVA alone (B3Z cells [1]; unconjugated GUDCA mixed with OVA, 22:1, data not shown): ≤ 30%
C[C@H](CCC(=O)NCCS(=O)(=O)O)[C@H]1CC[C@H]2[C@@H]3[C@H](O)C[C@@H]4C[C@H](O)CC[C@]4(C)[C@H]3C[C@H](O)[C@]12C [TCA, taurocholic acid] |  |  |  | effect on GII.3 human norovirus infection and replication (GII.3 human norovirus): increase GII.3 human norovirus infection and replication
CA-GWG-SV40NLS: cholic acid conjugated to peptide CGWWGYGPKKKRKVGGWWG (SEQ ID NO: 3) (also: cholic acid conjugate, site not given here) | higher antigen-presentation activity than SV40NLS |  |  | antigen-presentation activity of cholic acid-NLS peptide conjugate (B3Z response OD570) (B3Z cells [2]): strikingly high antigen-presentation activity
CA-HuR NLS: cholic acid conjugated to peptide CGRFSPMGVDHMSGLSGVNVPG (SEQ ID NO: 13) (also: cholic acid conjugate, site not given here) | high antigen presentation activity |  |  | antigen-presentation activity of cholic acid-NLS peptide conjugate (B3Z response OD570) (B3Z cells [2]): strikingly high antigen-presentation activity
CA-NLS2-RG-RPS17 NLS: cholic acid conjugated to NLS2-RG Domain RPS17 peptide (SEQ ID NO: 11) (CNKRVCEEIAIIPSKKLRNKGSGRIQRGPVRGIS; cysteine pairing not given here; also: cholic acid conjugate, site not given here) | high antigen presentation activity |  |  | 
CA-NLS3-RPS17 NLS: cholic acid conjugated to peptide SKKLRNKIAGYVTHLMKRI (SEQ ID NO: 8) (also: cholic acid conjugate, site not given here) | high antigen presentation activity | enhance OVA processing | enhance OVA internalization | 
CA-PQBP1 NLS: cholic acid conjugated to peptide CADREEGKERRHHRREELAPY (SEQ ID NO: 6) (also: cholic acid conjugate, site not given here) | strikingly high antigen-presentation activity | enhance OVA processing | enhance OVA internalization | antigen-presentation activity of cholic acid-NLS peptide conjugate (B3Z response OD570) (B3Z cells [2]): strikingly high antigen-presentation activity
CA-SV40NLS: cholic acid conjugated to the N-terminal cysteine amino group of 13-mer peptide CGYGPKKKRKVGG (SEQ ID NO: 1) (Cholyl-CGYGPKKKRKVGG) |  |  |  | antigen cross-presentation (B3Z response) compared with OVA alone (B3Z cells [1]): increased antigen cross-presentation
CA-cMyc NLS: cholic acid conjugated to peptide CGYGPAAKRVKLDGG (SEQ ID NO: 12) (also: cholic acid conjugate, site not given here) | high antigen presentation activity |  |  | 
CA-hnRNPA1 M9 NLS: cholic acid conjugated to peptide CSNFGPMKGGNFGGRSSGPY (SEQ ID NO: 4) (also: cholic acid conjugate, site not given here) |  | enhance OVA processing | enhance OVA internalization | 
NLS1-RPS17: cholic acid conjugated to peptide CMGRVRTKTVKKAAGG (SEQ ID NO: 15) (also: cholic acid conjugate, site not given here) |  | enhance OVA processing | enhance OVA internalization | 
SV40NLS: unconjugated NLS peptide CGYGPKKKRKVGG (SEQ ID NO: 1) (SV40NLS) [reference compound] |  |  |  | antigen cross-presentation (B3Z response) compared with OVA alone (B3Z cells [1]): no increase
